Legend:
[1] = for surface tension liquid-gas: Capillary rise; for vapor or sublimation pressure: Closed cell (Static) method
[2] = xn = mol fraction of the nth substance listed; conditions: Capillary rise

CCC [propane]
[1]
Conditions | surface tension liquid-gas [mN/m]
270.51 K | 10.4
271.77 K | 10.3
280.13 K | 9.28
285.35 K | 8.37
287.35 K | 8.37
289.65 K | 8.09
291.75 K | 7.78
297.98 K | 7.12
300.92 K | 6.57
303.37 K | 6.48
314.06 K | 4.99

[1], Liquid
Conditions | vapor or sublimation pressure [kPa]
270.51 K | 437.5
271.77 K | 456
280.13 K | 583.7
285.35 K | 680.6
287.35 K | 715.4
289.65 K | 762.1
291.75 K | 806.2
297.98 K | 948.2
300.92 K | 1021.2
303.37 K | 1083.1
314.06 K | 1398

C [methane] + CCC
[2]
Conditions | surface tension liquid-gas [mN/m]
272.08 K, x1 = 0.139 | 7.06
272.1 K, x1 = 0.45 | 1.71
272.14 K, x1 = 0.0508 | 9.38
272.24 K, x1 = 0.105 | 7.99
272.25 K, x1 = 0.32 | 3.54
272.28 K, x1 = 0.493 | 1.36
272.29 K, x1 = 0.265 | 4.85
272.33 K, x1 = 0.391 | 2.63
272.34 K, x1 = 0.206 | 5.99
272.35 K, x1 = 0.554 | 0.51
285.35 K, x1 = 0.0217 | 7.89
285.37 K, x1 = 0.0609 | 7.13
285.39 K, x1 = 0.398 | 1.57
285.5 K, x1 = 0.323 | 2.35
285.5 K, x1 = 0.525 | 0.34
285.55 K, x1 = 0.279 | 3.1
285.55 K, x1 = 0.474 | 0.76
285.65 K, x1 = 0.165 | 5.02
285.76 K, x1 = 0.122 | 6.1
303.15 K, x1 = 0.117 | 4.12
303.35 K, x1 = 0.318 | 1.27
303.37 K, x1 = 0.389 | 0.62
303.37 K, x1 = 0.433 | 0.27
303.45 K, x1 = 0.201 | 2.99

CC [ethane]
[1]
Conditions | surface tension liquid-gas [mN/m]
274.62 K | 2.95
279.17 K | 2.4
283.79 K | 1.85
291.25 K | 1.05
293.15 K | 0.95
294.16 K | 0.91
295.04 K | 0.81
297.18 K | 0.62
299.13 K | 0.43
301.25 K | 0.27
303.1 K | 0.13

[1]
Conditions | Critical pressure [kPa] | Critical temperature [K] | vapor or sublimation pressure [kPa]
274.62 K, Liquid | – | – | 2472.5
279.17 K, Liquid | – | – | 2753.2
283.79 K, Liquid | – | – | 3060.9
291.25 K, Liquid | – | – | 3615.2
293.15 K, Liquid | – | – | 3764.3
294.16 K, Liquid | – | – | 3848
295.04 K, Liquid | – | – | 3919.9
297.18 K, Liquid | – | – | 4105.5
299.13 K, Liquid | – | – | 4277.5
301.25 K, Liquid | – | – | 4471.9
303.1 K, Liquid | – | – | 4650.3
304.95 K, Liquid | – | – | 4832.5
Liquid, Direct measurement | 4870 | – | –
Liquid, Visual observation in a stirred cell | – | 305.39 | –

CCC [propane] + C
[2], x2 = 0
Conditions | surface tension liquid-gas [mN/m]
271.77 K | 10.3
285.35 K | 8.37
303.37 K | 6.48
